Source: patent US20120276190A1 (priority 2009, published 2012)

Legend:
Raji cells = assay type: cell-based
SKOV3 = test: WST-1 viability of SKOV3 cells; assay type: cell-based; details: with immunotoxin, data not shown
Description: The inhibition of protein synthesis in treated cells was assayed by the addition of 3H-leucine (2 μCi/mL) for 4 hours in 96-well plates. Filter mats and samples were used to count cells using a Wallac beta plate reader. Water-soluble tetrazolium-1 (WST-1; Roche) was added to 96-well plates at a final concentration of 10% and absorbance measured at 450 nm to measure cytotoxicity. Te CellTiter-Glo Luminescent Cell Viability Assay kit (Promega) was used to assay ATP. The Caspase-Glo kit from Promega was used to detect Caspase 3/7. Caspase 3 activity was measured using one of two fluorescent substrates Caspase 3 Fluorometric Assay Kit (R&D Systems) or Caspase 3 Fluorometric-KIT (Invitrogen). The results are reported in fluorescent units per microgram of cell protein. For short-exposure cell-killing assays: KB3-1 cells were seeded in six-well plates at a density of 5×10^4/mL. The next day, cells were treated for 4 hours with either immunotoxin alone, ABT-737 alone, or combinations of both as indicated. At the end of the treatment, the cells were washed with PBS, trypsinized, and re-plated and incubated for 6 more days. Finally, the cells were washed with PBS and then stained with methylene blue (0.5%) in methanol/water (50:50 by volume).

KB3-1 cells = assay type: cell-based; details: with immunotoxin, data not shown
H69AR cells = assay type: cell-based
ATF4 in KB3-1 cells = test: ER stress response (ATF4 immunoblot) in KB3-1 cells; assay type: cell-based; details: 4 hours, ABT-737 10 μmol/L, DTT 10 mmol/L
Text: (§1) Immunoblot analysis is inadequate to detect the cellular uptake of immunotoxins, added at subnanomolar concentrations. Thus, we could not document directly that additional molecules of toxin were delivered to the cytosol. Instead, we sought other evidence that ABT-737 was directly or indirectly interacting with the ER. In various cell types, Bcl-2 family members are found associated with the ER (Oakes S A, et al., Proc Natl Acad Sci USA 2005; 102:105-10 and Scorrano L, et al., Science 2003; 300:135-9). To test if ABT-737 interacted with the ER and provoked an ER stress response, we incubated KB3-1 or DLD1 cells for 4 hours with either ABT-737 or with DTT; the latter being a well-known mediator of ER stress. Treated cell extracts were analyzed for the transcription factor ATF4 (Bernales S, Papa F R, Walter P. Annu Rev Cell Dev Biol 2006; 22:487-508). […] Overall, our results are consistent with ABT-737 acting on the ER and causing, either directly or indirectly, an increased translocation of PE- or CET-based immunotoxins to the cytosol.

ATF4 in DLD1 cells = test: ER stress response (ATF4 immunoblot) in DLD1 cells; assay type: cell-based; details: 4 hours, ABT-737 10 μmol/L, DTT 10 mmol/L
Text: as §1

CD22 (human) = CD22 (human) (UniProt P20273); test: cell-based or functional assay
UniProt P20273, sequence (P20273 20-847): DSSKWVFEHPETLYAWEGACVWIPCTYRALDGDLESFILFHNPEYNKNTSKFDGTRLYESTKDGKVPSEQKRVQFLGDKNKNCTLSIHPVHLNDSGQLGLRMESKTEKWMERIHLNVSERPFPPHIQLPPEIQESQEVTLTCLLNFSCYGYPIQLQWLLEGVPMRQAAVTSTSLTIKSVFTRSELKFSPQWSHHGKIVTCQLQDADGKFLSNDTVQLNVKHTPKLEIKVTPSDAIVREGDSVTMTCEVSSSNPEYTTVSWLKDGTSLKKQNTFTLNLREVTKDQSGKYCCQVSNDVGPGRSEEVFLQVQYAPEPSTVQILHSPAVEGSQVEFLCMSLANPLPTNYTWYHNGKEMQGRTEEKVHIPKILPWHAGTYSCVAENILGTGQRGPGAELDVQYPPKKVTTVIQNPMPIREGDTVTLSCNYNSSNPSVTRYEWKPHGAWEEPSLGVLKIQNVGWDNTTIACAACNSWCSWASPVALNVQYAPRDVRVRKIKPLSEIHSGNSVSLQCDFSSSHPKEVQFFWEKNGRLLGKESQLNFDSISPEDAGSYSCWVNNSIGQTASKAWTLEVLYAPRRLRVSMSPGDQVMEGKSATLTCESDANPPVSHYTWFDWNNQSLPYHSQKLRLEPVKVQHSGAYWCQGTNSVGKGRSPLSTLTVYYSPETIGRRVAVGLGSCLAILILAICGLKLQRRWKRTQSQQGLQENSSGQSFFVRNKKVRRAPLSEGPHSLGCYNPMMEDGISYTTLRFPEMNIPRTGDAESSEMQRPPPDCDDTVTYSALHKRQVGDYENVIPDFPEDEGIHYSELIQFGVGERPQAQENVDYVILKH

[1] = tested on: caspase 3/7 in DLD1 cells; assay type: cell-based

In the case of CN[C@@H]1C[C@H]2O[C@@](C)([C@@H]1OC)n1c3ccccc3c3c4c(c5c6ccccc6n2c5c31)C(=O)NC4 [staurosporine], the “apoptosis, positive control for generating maximal apoptosis” value (Raji cells) is reported as ~74%.

For CC1(C)CCC(c2ccc(Cl)cc2)=C(CN2CCN(c3ccc(C(=O)NS(=O)(=O)c4ccc(N[C@H](CCN5CCOCC5)CSc5ccccc5)c(S(=O)(=O)C(F)(F)F)c4)cc3)CC2)C1 [ABT-263], the “enhancement of SKOV3 killing” value (SKOV3) was “similarly enhanced”, the “enhancement of KB3-1 killing” value (KB3-1 cells) was “similarly enhanced” and the “apoptosis, ABT-263 alone” value (Raji cells) was “little or no apoptosis”. For the same molecule, the “total apoptosis, in combination with BL22” value (Raji cells) was 62%, the “total apoptosis, in combination with HA22” value (Raji cells) was 68% and the “effect of combination with HB21-PE40” value (H69AR cells) was “synergistic and leads to cell death via apoptosis”. The “sensitivity to killing, agent alone” value (H69AR cells) was “resistant”.

With O[C@@H](CS)[C@@H](O)CS [DTT] the “ER stress response (ATF4)” value (ATF4 in KB3-1 cells) was “strongly upregulated” and the “ER stress response (ATF4)” value (ATF4 in DLD1 cells) was “strongly upregulated”.

Molecule “BL22 (from UniProt P11439 278-389; P11439 406-638)” has a total apoptosis of Raji cells in 24 hrs (Annexin V / 7-AAD flow cytometry) (CD22 (human)) of 47%.

With CC(C)C[C@H](NC(=O)[C@H](Cc1ccccc1)NC(=O)c1cnccn1)B(O)O [velcade, bortezomib] the “apoptosis by caspase 3/7 activity” value [1] was “increased caspase 3/7 activity”.
